Source: patent publication US7714014B2, “Targeting GLI proteins in human cancer by small molecules” (The Regents of the University of California, priority 2005, dated 2010)
Entries after “also recorded” stand apart in the source; their conditions may differ.

Columns and labels:
[1] = tested on: normal human muscle cells; assay: Cell survival assay (crystal violet); format: cell-based; settings: 1, 10, 30, and 50 μM, 3 days
Method: (§1) Typically, the small molecule compounds of the present invention were dissolved in DMSO at a concentration of 30 mM. The small molecule compounds were then tested under cell culture conditions at different concentrations ranging from 0, 10, 30, 50, to 100 uM. To determine cell survival after treatment, the cells were incubated with the small molecule compounds in 6-well plates for about 3 days. After removal of the cell culture medium, 1-ml of 0.5% crystal violet solution (prepared in 20% ethanol and 20% methanol) was added to stain the cells for 5 min. Then the crystal violet solution was rinsed clean with tap water. Cell survival was estimated based on the density of crystal stained plates.
The cell killing effect of small molecule compounds FN1-8, FN1-7, and FN1-5 at different doses was examined in normal human muscle cells. […] Normal muscle cells were plated in 6-well plates and incubated with 1, 10, 30, and 50 μM of each compound for 3 days, in the same manner as described herein for similar other experiments. […] Both FN1-5 and FN1-8 seem to be specific in killing cancer cells.

[2] = Pharmacokinetic analysis in mice (oral administration); format: in vivo, mouse
Method: In another pharmacokinetic study, three mice were orally administrated with the small molecule compound FN1-5 at the dose of 30 mg/kg body weight. Then, as described above, plasma was collected from the tail-vein of each mouse and the concentration of FN1-5 in each plasma sample was determined by mass spectroscopy.
Similarly, the pharmacokinetic properties of orally administered small molecule compound FN1-8 were analyzed (FIG. 22B). Comparing the uptake of FN1-8 to FN1-5, the uptake of FN1-5 after oral administration seems to be better, by about 7 fold.

[3] = tested on: H1299 (NSCLC); assay: Apoptosis analysis (Annexin V FITC, flow cytometry); format: cell-based, human; settings: 3 days
Method: Apoptosis was analyzed by using an Annexin V FITC Apoptosis Detection Kit (Biosource, Camarillo, Calif.), according to the manufacturer's protocol. After treatment with different small molecule compounds at various concentrations for about 3 days, cells were harvested by trypsinization, stained and immediately analyzed by flow cytometry (FACScan; Decton Dickinson, Franklin Lake, N.J.). Early apoptotic cells with exposed phosphatidylserine but intact cell membranes will bind to Annexin V-FITC, but not propidium iodide (PI). Cells in necrotic or late apoptotic stages will be labeled with both Annexin V-FITC and PI. “% apoptotic cells” or “% apoptosis” refers to the combined early and late apoptotic cells.
Flow cytometry was also used to examine apoptosis in several NSCLC cell lines after treatment with small molecule compounds of the invention.

[4] = tested on: human hepatocellular carcinoma cell lines HEPG2 and SK-Hep-1; assay: Cell survival assay (crystal violet); format: cell-based; settings: for cell killing: 50 μM
Method: as §1
The cell-based cytotoxicity assay described herein was used to determine the effect of small molecule compounds FN1-5 and FN1-8 in the human hepatocellular carcinoma cell lines HEPG2 and SK-Hep-1. Viability of these cells was analyzed after treatment with 10, 30 and 50 μM FN1-5 or FN1-8.

[5] = tested on: human sarcoma cell lines MG63 and MNNG; assay: Cell survival assay (crystal violet); format: cell-based; settings: FN1-8 at 50 μM; 10, 30 and 50 μM tested
Method: as §1
The cell-based cytotoxicity assay described herein was used to determine the effect of small molecule compounds FN1-5 and FN1-8 in the human sarcoma cell lines MG63 and MNNG. Viability of these cells was analyzed after treatment with 10, 30 and 50 μM FN1-5 or FN1-8.

[6] = tested on: GLI1- and GLI2-induced transcription in Panc4.21 pancreatic cancer cells; assay: 6xGLI BS-luciferase reporter assay; format: cell-based, human; settings: for 6xGLI BS-luciferase activity (TAFII31 co-transfected with GLI1 or GLI2): Panc4.21, 20 μM for 16-20 hours; for 6xGLI BS-luciferase activity (GLI1- or GLI2-induced): Panc4.21, 20 μM, 16-20 hours
Method: (§2) One day before transfection, cells (1×10^5) were plated in 12-well plates with growth medium without antibiotics. When cells reached 80-90% of confluence they were co-transfected using 0.5 μg of each promoter construct in pGL3Basic vector and 0.025 μg pRL-TK Vector (Promega; Madison, Wis.) containing Renilla Luciferase as an internal control for the transformation efficiency. Lipofectamine 2000™ (Invitrogen Life Technologies) was used to mediate transfection for about 6 hours. […] Briefly, cells were lysed in a lysis buffer and Firefly and Renilla Luciferase activities in cells of each well, were measured using Dual-Luciferase Assay System (Promega) and an illuminometer. The measured luciferase activities were normalized to pRL-TK Vector activity and were given relative to the basal activity of empty pGL3-Basic Vector, which was set to unity. The data shown represent mean values (±S.D.). All measurements were performed in triplicate and repeated in at least three independent experiments. The human Wnt-2 promoter-luciferase construct, the human SOCS3 promoter-Luciferase construct and the human Gremlin promoter-luciferase construct were cloned and characterized in the laboratory of Dr. Jablons at the University of California, San Francisco (San Francisco, Calif.; He et al., Biochem Biophy Res Comm, 2003; and unpublished data). The 6GLI-TKO-luciferase construct (containing 6 repeats of consensus GLI DNA binding sequence) was kindly provided by Dr. Matthias Hebrok's laboratory at the University of California, San Francisco (San Francisco, Calif.).
To further examine the specificity of the small molecule compounds FN1-5 and FN1-8 to inhibit Hh/Gli signaling pathways, GLI-dependent transcription in the absence and presence of these compounds was also determined in pancreatic cancer cells.
This finding also provides a method for inhibiting GLI1- and GLI2-dependent transcription in a cell.
The TAFII31 expression plasmid contained the full-length TAFII31 cDNA generated by PCR cloned into the EcoRI (5′) and BamHI (3′) sites of a mammalian expression vector containing a c-Myc tag (pCDNA3.1 (−)B. The sequence of TAFII31 corresponds to GenBank Accession No. U25112.

[7] = tested on: GLI1-induced transcription in melanoma cell lines Malme-3M, A375, SK-Mel-2, SK-Mel-5; assay: 6xGLI BS-luciferase reporter assay; format: cell-based, human; settings: 20 μM, 16-20 hours
Method: as §2, with “The 6GLI-TKO-luciferase construct (containing 6 repeats of consensus GLI DNA binding sequence) was kindly provided by Dr. Matthias Hebrok's laboratory at the University of California, San Francisco (San Francisco, Calif.).” left out

SMILES	cell killing effect in normal cells [1]	uptake of FN1-5 relative to FN1-8 ([2]; oral administration)	time of uptake into plasma ([2]; oral, 30 mg/kg) [min]	time within which plasma concentration diminishes ([2]; oral, 30 mg/kg) [h]	% of apoptotic cells ([3]; H1299, 10 μM) [%]	% of apoptotic cells ([3]; H1299, 100 μM) [%]	cell killing [4]	cell killing [5]	6xGLI BS-luciferase activity (TAFII31 co-transfected with GLI1 or GLI2) [6]	6xGLI BS-luciferase activity (GLI1- or GLI2-induced) [6]	cell killing potency compared with FN1-5 [4]	6xGLI BS-luciferase activity (GLI1-induced) [7]
O=C(NCCCCCO)C1C(c2ccccc2)=NN(c2ccccc2)C1c1ccccc1 (centres unmarked) [FN1-5, N-(5-Hydroxypentyl)-1,3,5-triphenyl-4,5-dihydro-pyrazole-4-carboxyamide]	No noticeable cell killing effect	about 7 fold	≤ 10	≤ 24	6.7	55.9	dramatic cell killing	No significant cell killing	significantly reduced	significantly reduced level of luciferase activity	–	–
O=C(NCCc1ccc(O)cc1)C1C(c2ccccc2)=NN(c2ccccc2)C1c1ccccc1 (centres unmarked) [FN1-8, N-(2-(4-Hydroxyphenyl)ethyl)-1,3,5-triphenyl-4,5-dihydro-pyrazole-4-carboxyamide]	No noticeable cell killing effect	–	–	–	–	–	dramatic cell killing	dramatic cell killing	significantly reduced	significantly reduced level of luciferase activity	more potent	significantly reduced level of luciferase activity; also recorded: down-regulates GLI1-induced transcription activity
